Reference: patent US9675699B2, “Cooling enhancing compositions” (International Flavors & Fragrances Inc., priority 2011, dated 2017)

Assays:
[1] = test system: cooling strength; settings: with respect to WS-3 = 10.0; cited from earlier work
[2] = test system: cooling profile of menthol; experiment: Example II: cooling profile versus 5 ppm menthol control, group of five trained panelists; type: in vivo, human; settings: for Average Increase: versus 5 ppm menthol control
Method: Responsible actives were determined by comparing the cooling profile of menthol alone (the control) against the solutions with either menthol or cooling enhancing compositions or menthol with the active(s). The profile attributes consist of onset, location, intensity and duration of cooling. Control: 5mg menthol/1 Liter of water (=5 ppm) The use level of 5 ppm is a standard use level within our research facility when looking for cooling enhancement. The levels of the actives were determined after tasting them at varying concentrations within the range of 1 ppm to 200 ppm. The levels presented were deemed to be optimal by offering the greatest functionality. The cooling enhancing compositions listed below were dosed on top of the menthol control. The results below were obtained by a group of five trained panelists.)

[3] = test system: cooling; experiment: Inherent cooling of materials tasted alone in water; type: in vivo, human
[4] = 5 ppm Menthol + 50 ppm test substance in water
[5] = 5 ppm Menthol + 50 ppm test substance

## CC(C)[C@@H]1CC[C@@H](C)C[C@H]1C(=O)NC(C)(C)C [WS-14]
[1]
  relative cooling strength: about 5.0

## CC1CCC(C(C)C)C(C(=O)OCC(O)CO)C1 (stereo not drawn) [WS-30]
[1]
  relative cooling strength: about 1.5

## CCOC(=O)CNC(=O)[C@@H]1C[C@H](C)CC[C@H]1C(C)C [WS-5]
[1]
  relative cooling strength: about 16.7

## CC1CCC(C(C)C)C(O)C1 (stereo not drawn) [Menthol]
[2]; 5 ppm Menthol alone in water (control)
  Taste Descriptors: thin and moderate cooling, slight burn, some bitterness, cooling on front, tip of tongue and gums, mild cooling on breath-in, slightly harsh and sharp

## COc1cc([C@@H]2CC(=O)c3c(O)cc(O)cc3O2)ccc1O [Homoeriodictyol]
[2]; 5 ppm Menthol + 5 ppm test substance in water
  Taste Descriptors: faster onset of cooling than menthol alone, cooling localized on front of tongue, cold as in temperature, slight teeth cooling, fully delocalized cooling after 10 seconds reaching back of throat and roof of mouth, mild cooling on breath-in, diminished menthol burn
[2]; 5 ppm Menthol + 5 ppm test substance
  Average Increase: 66%
[3]; 5 ppm in water
  inherent cooling (taste observation): taste neutral, slightly drying, no cooling
[3]; 25 ppm in water
  inherent cooling (taste observation): drying, not cooling

## CCNC(=O)C1CC(C)CCC1C(C)C (stereo not drawn) [WS-3]
[1]
  relative cooling strength: 10.0

## CNC(=O)C(C)(C(C)C)C(C)C [WS-23]
[1]
  relative cooling strength: about 5.0

## CNC(=O)C1C(C)CCCC1(C)C (stereo not drawn) [N,2,2,6-Tetramethylcyclohexane-l-carboxamide]
[1]
  relative cooling strength: about 1.0

## O=c1cc(-c2ccc(O)c(O)c2)oc2cc(O)cc(O)c12 [Luteolin]
[2]; [4]
  Taste Descriptors: Equivalent cooling as compared to control, localized on front tip of tongue, gums and roof of mouth, did not expedite onset but smoothed upfront mouthfeel, slight irritation to tongue and back of mouth/ throat cavity
[2]; [5]
  Average Increase: 32%
[3]; 50 ppm in water
  inherent cooling (taste observation): slightly stale flavor, no cooling

## CC(C)[C@@H]1CC[C@@H](C)C[C@H]1OC(=O)CCCC(=O)O [monomenthyl glutarate]
[1]
  relative cooling strength: about 3.5

## O=C1C[C@@H](c2ccc(O)c(O)c2)Oc2cc(O)cc(O)c21 [Eriodictyol]
[2]; [4]
  Taste Descriptors: Cooling localized on middle of tongue stronger than control, more intense in back of throat on breath-in, does not trigger a faster onset, cooling builds more after expectorating and on breath-in, sharpened the intensity of cooling in the center and sides of tongue and roof of mouth
[2]; [5]
  Average Increase: 56%
[3]; 35 ppm in water
  inherent cooling (taste observation): slight irritation (piperin-like burn) without cooling

## CC1CCC(C(C)C)C(OC(=O)C(C)O)C1 (stereo not drawn) [Menthyl Lactate]
[1]
  relative cooling strength: about 2.9

## COc1ccc([C@@H]2CC(=O)c3c(O)cc(O)cc3O2)cc1O [Hesperetin]
[2]; [4]
  Taste Descriptors: Sweet, no impact on cooling, slightly bitter, drying, cooling is delocalized and about the same strength as control
[2]; [5]
  Average Increase: 0%
